The results in this text go back to publication PMC7567103 (Nature Communications, 2020).

Test [1] addresses T1, GHRHR(23-405)-15AA-LgBiT-2MBP (Homo sapiens, UniProt Q02643).
T1 construct: 24 h after transfection with GHRHR(23-423), GHRHR(23-405), GHRHR(23-405)-LgBiT-2MBP, or HA-Flag-GHRHR (WT and mutants); HA signal peptide (replaces native signal M1-G22) (N); expressed in transfected cells; host or cells: HEK 293 T
T1 sequence (Q02643 23-405): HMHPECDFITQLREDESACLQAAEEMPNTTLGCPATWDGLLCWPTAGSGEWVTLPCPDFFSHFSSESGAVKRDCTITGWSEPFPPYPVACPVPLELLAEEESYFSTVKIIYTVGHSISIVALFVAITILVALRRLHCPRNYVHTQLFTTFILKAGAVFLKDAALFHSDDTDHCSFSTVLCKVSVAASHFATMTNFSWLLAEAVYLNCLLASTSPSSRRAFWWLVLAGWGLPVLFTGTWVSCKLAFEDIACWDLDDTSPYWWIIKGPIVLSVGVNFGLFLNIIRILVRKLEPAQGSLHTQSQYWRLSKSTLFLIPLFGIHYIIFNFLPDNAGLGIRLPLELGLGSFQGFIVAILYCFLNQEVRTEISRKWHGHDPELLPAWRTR
The experiment in a line: whole cell binding, competitive inhibition of 125I-GHRH (Supplementary Fig. 2c). The settings on record: competition with 80 pM 125I-GHRH; whole HEK 293T cells, RT 3 h; mean ± SEM, n = 7-8. As for the experimental part:
This assay was conducted in 96-well Iso-plates (PerkinElmer) coated with poly-D-lysine hydrobromide (Sigma-Aldrich). Twenty-four hour after transfection with GHRHR(23-423) or GHRHR(23-405)-LgBiT-2MBP, HEK 293 T cells were washed twice, and incubated with blocking buffer (DMEM medium supplemented with 33 mM HEPES, and 0.1% (w/v) BSA, pH 7.4) for 2 h at 37 °C. Then, radiolabeled ^125I-GHRH (80 pM, Phoenix Biotech) and seven decreasing concentrations of unlabeled peptide (10 μM, […]) were added and competitively reacted with the cells in binding buffer (PBS supplemented with 10% (w/v) BSA, pH 7.4) at RT for 3 h. Cells were washed with ice-cold PBS and lysed by 50 μL lysis buffer (PBS supplemented with 20 mM Tris-HCl and 1% (v/v) Triton X-100, pH 7.4). Finally, 150 μL of scintillation cocktail (OptiPhase SuperMix, PerkinElmer) was employed and radioactivity (counts per minute) read in a scintillation counter (MicroBeta[2] plate counter, PerkinElmer).
93 of transfection. Data are normalized by the WT receptor and fitted with a three-
94 parameter logistic equation. All values are means ± S.E.M. of at least three […]
Binding affinity is quantified by
97 reduction of radioactivity (counts per minute, CPM) and normalized to the […]
231 Binding data were analyzed using a three-parameter logistic equation to […]
234 determine statistical difference. *P<0.01; ND, not determined.

Test [2] has as its target T2, GHRHR A271R (Homo sapiens, UniProt Q02643, A271R).
T2 construct: GHRHR(23-423)-; HA signal peptide (replaces native signal M1-G22) (N); expressed in transfected cells; host or cells: HEK 293T, pcDNA3.1, transient
The experiment in a line: cAMP accumulation, A271R. The test is classed as cell-based. The note with it: mean ± SEM, n ≥ 3. An excerpt: Fig. 2 Molecular recognition of GHRH by GHRHR and comparison of that with LA-PTH–PTH1R and GLP-1–GLP-1R. a Detailed interaction between GHRH and the TMD pocket of GHRHR with hydrogen bonds shown as dotted lines. b, c Pairwise comparison of GHRH bound to GHRHR with GLP-1 and LA-PTH in complex with their corresponding receptors, showing the relative positions of peptide ligands. Lime green, GHRHR; blue, GHRH; red, PTH1R and LA-PTH; purple, GLP-1R and GLP-1. d–f The effects of mutation in the ligand-binding pocket on cAMP accumulation. cAMP levels were measured in wild-type (WT) receptor and alanine mutants in ECL1, 2, and 3 (d), TM1, 2, and 3 (e), and TM5, 6, and 7 (f). cAMP signals were normalized to the maximum response of WT and concentration–response curves were analyzed using a three-parameter logistic equation. Data shown are means ± S.E.M. of at least three independent experiments (n = 3–5), conducted in triplicate. Source data are provided as a Source data file.
GHRH-stimulated cAMP accumulation was measured by a LANCE Ultra cAMP kit (PerkinElmer). […] After 1 h RT incubation, TR-FRET signals (excitation: 320 nm, emission: 615 and 665 nm) were measured by an EnVision (PerkinElmer).
(In general: Changes in cAMP serve as a functional read-out for many G protein-coupled receptors.)

T2 sequence (Q02643 23-423 A271R): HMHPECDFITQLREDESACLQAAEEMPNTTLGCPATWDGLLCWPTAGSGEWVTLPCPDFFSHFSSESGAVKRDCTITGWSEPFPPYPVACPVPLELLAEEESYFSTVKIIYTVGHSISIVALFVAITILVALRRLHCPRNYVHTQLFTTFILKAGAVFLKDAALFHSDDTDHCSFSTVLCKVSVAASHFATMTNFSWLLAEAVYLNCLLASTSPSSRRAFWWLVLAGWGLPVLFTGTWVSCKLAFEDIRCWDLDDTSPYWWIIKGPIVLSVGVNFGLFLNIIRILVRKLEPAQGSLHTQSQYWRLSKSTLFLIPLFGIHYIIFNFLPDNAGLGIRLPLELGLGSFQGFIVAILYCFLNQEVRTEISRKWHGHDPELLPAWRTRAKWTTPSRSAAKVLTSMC

In test [1], `CC[C@H](C)[C@H](NC(=O)[C@H](C)NC(=O)[C@H](CC(=O)O)NC(=O)[C@H](C)NC(=O)[C@@H](N)Cc1ccc(O)cc1)C(=O)N[C@@H](Cc1ccccc1)C(=O)N[C@H](C(=O)N[C@@H](CC(N)=O)C(=O)N[C@@H](CO)C(=O)N[C@@H](Cc1ccc(O)cc1)C(=O)N[C@@H](CCCNC(=N)N)C(=O)N[C@@H](CCCCN)C(=O)N[C@H](C(=O)N[C@@H](CC(C)C)C(=O)NCC(=O)N[C@@H](CCC(N)=O)C(=O)N[C@@H](CC(C)C)C(=O)N[C@@H](CO)C(=O)N[C@@H](C)C(=O)N[C@@H](CCCNC(=N)N)C(=O)N[C@@H](CCCCN)C(=O)N[C@@H](CC(C)C)C(=O)N[C@@H](CC(C)C)C(=O)N[C@@H](CCC(N)=O)C(=O)N[C@@H](CC(=O)O)C(=O)N[C@H](C(=O)N[C@@H](CCSC)C(=O)N[C@@H](CO)C(=O)N[C@@H](CCCNC(=N)N)C(=O)N[C@@H](CCC(N)=O)C(=O)N[C@@H](CCC(N)=O)C(=O)NCC(=O)N[C@@H](CCC(=O)O)C(=O)N[C@@H](CO)C(=O)N[C@@H](CC(N)=O)C(=O)N[C@@H](CCC(N)=O)C(=O)N[C@@H](CCC(=O)O)C(=O)N[C@@H](CCCNC(=N)N)C(=O)NCC(=O)N[C@@H](C)C(=O)N[C@@H](CCCNC(=N)N)C(=O)N[C@@H](C)C(=O)N[C@@H](CCCNC(=N)N)C(=O)N[C@@H](CC(C)C)C(N)=O)[C@@H](C)CC)C(C)C)[C@@H](C)O` [GHRH, Growth hormone-releasing hormone] gave an IC50 of 0.879 nM. In test [2], this compound had an EC50 of 0.105 nM and an Emax of 100.81±1.19 % WT.

The term IC50 denotes the concentration that gives 50% inhibition. As a reminder, the EC50 is the concentration giving half of the maximal effect. A higher EC50 goes with lower potency in that assay.
